The values that follow come from patent US11850313B2, “Method and compositions for protecting tissue” (The London Health Sciences Centre Research Inc., priority 2019, dated 2023).

For data set [1], the system named is oxidatively stressed endothelial cells. The conditions noted are these: including protection against oxidative mitochondrial DNA damage; cited from earlier work.
The test system of data set [2] is donor kidneys. In words: Static cold storage (4° C.) of donor kidneys in UW solution supplemented with AP39. The conditions noted are these: AP39 added to UW / cold preservation solution, applicant's earlier work.
Data set [3] deals with DCD porcine kidneys. In words: Ex vivo subnormothermic perfusion of DCD porcine kidneys with Hemopure® at 21° C. followed by blood-free reperfusion at 37° C. Conditions: for tissue oxygenation during preservation: 21° C., vs SCS (FIG. 4A); for urine output during preservation: 4 h perfusion at 21° C., vs Hemopure® alone (FIG. 3A). Also noted: species or system Pigs. An excerpt:
Pigs weighing 55-65 kg were used for this study. The animals were maintained in accordance with the Committee on the Care and Use of Laboratory Animals appointed by the National Research Council. The animals were housed at the animal facility in the West Valley Building, which is managed by the Animal Care and Veterinary Services Department at The University of Western Ontario. The experimental protocol and housing conditions followed the guidelines of the university's Animal Care Committee and the Canadian Council on Animal Care.
(§1) Pigs were tranquilized prior to transport to the Canadian Surgical Technologies & Advanced Robotics facility (CSTAR, University Hospital, London, Canada). Upon arrival at CSTAR, the animals were prepared for surgery as per SOP. A midline incision was used to expose the kidneys. The right and left kidneys with their ureters were dissected free from the retro peritoneum while leaving the blood supply to the ureter intact and then the ureter was divided. The renal vascular pedicles were left as long as possible by freeing the renal artery and vein up to the aorta and vena cava. The pedicles were clamped for 30 minutes to induce warm ischemia in the donor organs following intravenous infusion of 10000 units of heparin. The injury inflicted is likely greater than that of conventional DCD kidneys after withdrawal of life support as the blood supply is cutoff completely by clamping, which is more harmful than the gradual ischemic injury that occurs during cardiac death. Subsequently, nephrectomies of the left and right kidney were performed and the donor animal was euthanized. All the surgeries were performed by transplant fellows at University Hospital, London, Ontario, Canada.
The kidneys were randomly assigned to one of five preservation treatments. The first group of kidneys were flushed with and stored in HTK solution on ice for 4 h (SCS), which reflects the current clinical standard of care for organ preservation. The second group of kidneys were flushed with HTK solution and treated to 4 h of subnormothermic perfusion at 21° C. with Hemopure®. The third group of kidneys were flushed with HTK solution supplemented with 200 nM AP39 and treated to 4 h of subnormothermic perfusion at 21° C. with Hemopure® supplemented with 200 nM AP39. The fourth group of kidneys were flushed with HTK solution supplemented with 1 μM AP39 and treated to 4 h of subnormothermic perfusion at 21° C. with Hemopure® supplemented with 1 μM AP39. The fifth group of kidneys were flushed with HTK solution supplemented with 150 μM STS and treated to 4 h of subnormothermic perfusion at 21° C. with Hemopure® supplemented with 150 μM STS. After the 4 h preservation period, all kidneys were perfused with Hemopure® for 4 h at 37° C. with nutrients to simulate reperfusion after renal transplantation. The kidneys were perfused using an ex vivo perfusion apparatus (FIG. 4). The perfusion pressure was maintained at 50 mmHg. Hemopure® samples were analyzed hourly. The perfusate was oxygenated using an external mixed air supply (35% O2, 2 L/min). After reperfusion with stressed blood, kidneys were bivalved sagittally. One half was stored at −80° C. for mechanistic analyses and the other half was stored in formalin for histopathological analyses.
Hemopure® and urine samples were collected hourly during the 4 h preservation perfusion and during the 4 h reperfusion to evaluate graft function over time. Electrolyte levels, lactate levels and gas levels in the perfusate were measured hourly using the iSTAT point-of-care testing system. Hourly urine output was recorded, and total urine samples were also collected from both perfusion periods. Pictures of the kidney, urine bags and flow and pressure readings were taken hourly. Tissue oxygenation was also measured hourly. During both perfusion periods, we closely monitored pump parameters (flow and pressure) to ensure optimal graft function. […]

Data set [4] deals with kidney. Conditions: AP39 supplementation of UW solution, 21° C.; cited from earlier work.
Data set [5] concerns DCD porcine kidneys. In words: Ex vivo perfusion of DCD porcine kidneys with autologous blood (SMP/NMP), then reperfusion with stressed blood at 37° C. Further details: species or system Pigs. The procedure:
as §1, with “3000” for “10000”, “All the surgeries were performed by transplant fellows at University Hospital, London, Ontario, Canada.” left out
The kidneys were randomly assigned to one of four preservation treatments. […] Blood, urine and tissue samples were collected and analyzed as described in the next subsection.
Blood and urine samples were collected hourly during the 4 h preservation perfusion with non-stressed blood and during the 4 h reperfusion with stressed blood to evaluate graft function over time. Hourly urine output was recorded, and total urine samples were also collected from both perfusion periods. Pictures of the kidney, urine bags and blood flow and pressure readings were taken hourly. […] During the perfusion periods, we closely monitored pump parameters (flow and pressure) to ensure optimal graft function. […] The total TUNEL+ area (%) was quantified for 10 random fields of view for 2 kidney samples per treatment group using ImageJ software v 1.50 (National Institutes of Health, USA). The total tubular area and TUNEL+ tubular area, used to calculate the TUNEL+ area (%), were determined by adjusting the brightness and saturation thresholds. […]

For data set [6] the following is noted: 500 ppm; cited from earlier work.

Take `O=C(CCCCCCCCC[P+](c1ccccc1)(c1ccccc1)c1ccccc1)Oc1ccc(-c2cc(=S)ss2)cc1.[Br-]` [AP39]: the “protective effect under oxidative stress conditions” value in data set [1] is reported as “cryoprotective effect”. Moreover, the graft outcomes in data set [2] is “improves renal graft outcomes”. Also, in data set [3] (200 nM AP39 in Hemopure®), the “tissue oxygenation during preservation” value is given as “higher tissue oxygenation than SCS” and the “urine output during preservation” value was “significantly higher”. The “apoptotic tissue injury (TUNEL score)” value in data set [3] (200 nM AP39 in Hemopure®, after reperfusion, vs Hemopure® and Hemopure®+1 μM AP39 (FIGS. 6A-6F)) was “reduced apoptotic tissue injury”. Further, in data set [3] (1 μM AP39 in Hemopure®), the “urine output during preservation” value is recorded as “significantly higher”. Further, the “urine output during reperfusion” value in data set [3] (preserved with 200 nM AP39 in Hemopure® at 21° C., 4 h reperfusion at 37° C., vs Hemopure® kidneys (FIG. 3B)) is reported as “significantly higher”. Moreover, the kidney preservation result in data set [4] is given as “improves kidney preservation”. For the same compound, in data set [5] (200 nM AP39 in non-stressed blood at 21° C. (SMP-AP39-21C), vs SMP-21C and NMP-37C (FIG. 9A)), the “urine output during 4 h of preservation” value is recorded as “significantly higher”. The graft function entry in data set [5] (AP39-supplemented blood at 21° C., vs cold storage in UW and perfusion with only blood at 21° C. and 37° C.) was “improves graft function”. For the same compound, the “urine output during 4 h of reperfusion with stressed blood” value in data set [5] (preserved with SMP-AP39-21C, vs SCS-4C, SMP-21C, NMP-37C (FIG. 9B)) was “significantly higher”.

For `S` [H2S, Hydrogen sulfide], in data set [6], the “effect of exposure to extreme levels” value is “sudden collapse and unconsciousness”.

For the compound `O.O.O.O.O.O=S([O-])([O-])=S.[Na+].[Na+]` [STS, sodium thiosulfate (STS) pentahydrate], in data set [3] (150 μM STS in Hemopure®), the “tissue oxygenation during preservation” value was “higher tissue oxygenation than SCS” and the “urine output during preservation” value is reported as “significantly higher”.
